# Assay results from US12472164B2, “Masitinib for the treatment of sickle cell disease” (AB SCIENCE, priority 2019, dated 2025).
# Key:
# [1] = system: SCD (HbSS mice), Townes transgenic mouse model; test: Substance P-induced vaso-occlusive crisis (VOC) occurrence and overall survival in Townes transgenic sickle mice; assay type: in vivo
# From the text: The Townes transgenic mouse model was utilized for this study (Wu L C et al., Blood 2006; 108:1183-1188). A total of 18 mice were assigned to 3 treatment groups; namely: SCD (HbSS mice) treated with masitinib (SCD Masitinib—intervention group), untreated SCD mice (SCD—positive control group), and WT mice (WT—negative control group).
# The HbSS-Townes mouse model was created on a mixed genetic background in which the murine adult α-globin genes were replaced with the human α-globin gene (genotype: Hba hα/hα) and the murine adult β-globin genes were replaced with human sickle βS- and fetal Aγ-globin gene fragments linked together (genotype: Hbb hAγβS/hAγβS) (Nguyen J, et al., Blood 2014; 124(21):4916). HbSS-Townes mice have anemia, a shortened red blood cell half-life of 2.5 days and a severe disease phenotype. Control HbAA-Townes mice were created by replacing the murine globin genes with human α-globin gene (genotype: Hba hα/hα) and linked human βA- and fetal Aγ-globins (genotype: Hbb hAγβA/hAγβA).
# Mice were administered freshly prepared solutions of substance P (4 to 40 mg/kg) via intravenous injection.
# Mice in the intervention group were administered masitinib at 100 mg/kg/day via gavage for 4 days prior to injection of substance P. […]
# Vaso-occlusive crisis (VOC) occurrence and overall survival were analyzed in the mice. […]
# [2] = system: lung tissue of SCD (HbSS) Townes mice; test: Lung tissue histology (hematoxylin and eosin; anti-FcεRIα immunostaining) of SCD mice after substance P injection; assay type: in vivo; conditions: masitinib 100 mg/kg/day via gavage for 4 days prior to substance P
# Experimental: The Townes transgenic mouse model was utilized for this study (Wu L C et al., Blood 2006; 108:1183-1188). A total of 18 mice were assigned to 3 treatment groups; namely: SCD (HbSS mice) treated with masitinib (SCD Masitinib—intervention group), untreated SCD mice (SCD—positive control group), and WT mice (WT—negative control group). Mice were administered freshly prepared solutions of substance P (4 to 40 mg/kg) via intravenous injection. Mice in the intervention group were administered masitinib at 100 mg/kg/day via gavage for 4 days prior to injection of substance P. Lung tissue was processed immediately after death by cervical dislocation and fixed in 10% buffered formalin. For analysis of the lung tissue cellular structure, samples were stained with hematoxylin and eosin. For analysis of mast cell infiltration, samples were stained with an anti-FcεRIα primary antibody and a fluorophore secondary antibody. The cause of death was then analyzed. […] Lung tissue sections were stained with hematoxylin and eosin. For immunofluorescence, lung tissue sections were incubated with an anti-FcεRIα primary antibody and then stained with a fluorophore secondary antibody.
structure (smiles),measurement,setting,value
"Cc1ccc(NC(=O)c2ccc(CN3CCN(C)CC3)cc2)cc1Nc1nc(-c2cccnc2)cs1 [masitinib, 4-(4-methylpiperazin-1-ylmethyl)-N-[4-methyl-3-(4-pyridin-3ylthiazol-2-ylamino)phenyl]benzamide]",Overall survival (death),"[1]; SCD mice pretreated with masitinib 100 mg/kg/day via gavage for 4 days prior to injection of substance P, 83% of untreated SCD mice died in the first 3 hours (FIG. 1)",none died
same,Vaso-occlusive crisis (VOC) occurrence,"[1]; SCD mice pretreated with masitinib 100 mg/kg/day via gavage for 4 days prior to intravenous injection of substance P, all untreated SCD mice experienced VOC",did not present any VOC
same,Infiltration of lung tissue by FcεRI-positive cells (mast cells),"[2]; anti-FcεRIα immunofluorescence, versus untreated SCD mice (FIGS. 2A to 2H)",to a far lesser degree
same,Development of acute chest syndrome (ACS),[2]; concluded from limited FcεRI-positive cell infiltration and absent or limited edema,did not develop ACS
same,Lung edema,"[2]; hematoxylin and eosin staining, versus untreated SCD mice",reduced
